In brackets after ≈: the same amount, converted by molar mass. Structures can show the parent of a compound that is named as a salt. Where two headings read alike, the source gives them in different places.
Tests used:
Ent. cloacae MA2646 = experiment: in vitro antibacterial activity, microtitration dilution (MIC), Ent. cloacae MA2646; assay type: cell-based; conditions: Enterobacter cloacae, read-out: minimum inhibiting concentration (MIC)
Source text: (§1) The in vitro antibacterial activity, is obtained by the microtitration dilution method as described in Heifetz, et al., Antimicr. Agents & Chemother., 6, 124 (1974), which is incorporated herein by reference.
(§2) By use of the above methods, the following minimum inhibiting concentration values (MICs in μg/mL), PD50 's in mg/kg, no effect phototoxicity dose in mg/kg and the cytotoxicity IC50 in μg/mL were obtained for representative enantiomers of the invention and compounds of the prior art as shown in the table.

Esch. coli Vogel [1] = experiment: in vitro antibacterial activity, microtitration dilution (MIC), Esch. coli Vogel; assay type: cell-based; conditions: Escherichia coli, read-out: minimum inhibiting concentration (MIC)
Source text: as §1, §2

Klebs. pneumoniae MGH-2 = experiment: in vitro antibacterial activity, microtitration dilution (MIC), Klebs. pneumoniae MGH-2; assay type: cell-based; conditions: Klebsiella pneumoniae, MGH2, read-out: minimum inhibiting concentration (MIC)
Source text: as §1, §2

Prot. rettgeri M 1771 = experiment: in vitro antibacterial activity, microtitration dilution (MIC), Prot. rettgeri M 1771; assay type: cell-based; conditions: Providencia rettgeri, M1771, read-out: minimum inhibiting concentration (MIC)
Source text: as §1, §2

Pseud. aeruginosa UI-18 = experiment: in vitro antibacterial activity, microtitration dilution (MIC), Pseud. aeruginosa UI-18; assay type: cell-based; conditions: Pseudomonas aeruginosa, UI18, read-out: minimum inhibiting concentration (MIC)
Source text: as §1, §2

Staph. aureus H 228 = experiment: in vitro antibacterial activity, microtitration dilution (MIC), Staph. aureus H 228; assay type: cell-based; conditions: Staphylococcus aureus, H228, read-out: minimum inhibiting concentration (MIC)
Source text: as §1, §2

Staph. aureus UC-76 = experiment: in vitro antibacterial activity, microtitration dilution (MIC), Staph. aureus UC-76; assay type: cell-based; conditions: Staphylococcus aureus, UC76, read-out: minimum inhibiting concentration (MIC)
Source text: as §1, §2

Strep. faecalis MGH-2 = experiment: in vitro antibacterial activity, microtitration dilution (MIC), Strep. faecalis MGH-2; assay type: cell-based; conditions: Enterococcus faecalis, MGH2, read-out: minimum inhibiting concentration (MIC)
Source text: as §1, §2

Strep. pheumoniae SV-1 = experiment: in vitro antibacterial activity, microtitration dilution (MIC), Strep. pneumoniae SV-1; assay type: cell-based; conditions: Streptococcus pneumoniae, SV1, read-out: minimum inhibiting concentration (MIC)
Source text: as §1, §2

Strep. pyogenes C-203 [2] = experiment: in vitro antibacterial activity, microtitration dilution (MIC), Strep. pyogenes C-203; assay type: cell-based; conditions: Streptococcus pyogenes, C203, read-out: minimum inhibiting concentration (MIC)
Source text: as §1, §2

Esch. coli Vogel [3] = experiment: median protective dose in mice given lethal systemic infections, Esch. coli Vogel; assay type: in vivo; conditions: Escherichia coli, single dose at time of challenge, read-out: median protective dose (PD50)
Description: (§3) The in vivo activity is obtained when the compounds are tested according to the procedure of Miller, et al (Proc. Soc. Exp. Biol. Med. 57, 261, 1944). The median protective dose (PD50) was determined in mice given lethal systemic infections. Single doses of compound were given at time of challenge.
as §2
(§4) The in vivo data as PD50 s are reported below the line of MICs for the same compound.

Strep. pyogenes C-203 [4] = experiment: median protective dose in mice given lethal systemic infections, Strep. pyogenes C-203; assay type: in vivo; conditions: Streptococcus pyogenes, single dose at time of challenge, read-out: median protective dose (PD50)
Description: as §3, §2, §4

[5] = cytotoxicity, hamster V-79 cells, colony reduction; assay type: cell-based; conditions: 3 hours treatment, colonies counted after 5 days, read-out: Cytotox (cytotoxicity IC50)
Description: The cytotoxicity data is obtained using hamster V-79 cells. The cells were suspended in tissue culture medium and grown overnight. Cells were treated with drug for 3 hours, washed free of drug and then replated, and the colonies counted after 5 days. The concentration of drug that reduced colones by 50% relative to control was recorded.
as §2

For `CN[C@@H](C)[C@@H]1CCN(c2nc3c(cc2F)c(=O)c(C(=O)O)cn3C2CC2)C1` [Example 21, 3R,1S-1-cyclopropyl-6-fluoro-7-[3-(1-N-methylaminoethyl)-1-pyrrolidinyl]-1,4-dihydro-4-oxo-1,8-naphthyridine-3-carboxylic acid], the MIC (Ent. cloacae MA2646) was 0.1 µg/mL (≈ 0.267 µM), the MIC (Esch. coli Vogel [1]) was 0.1 µg/mL (≈ 0.267 µM) and the MIC (Klebs. pneumoniae MGH-2) was 0.2 µg/mL (≈ 0.534 µM). For the same compound, the MIC (Prot. rettgeri M 1771) was 0.4 µg/mL (≈ 1.07 µM), the MIC (Pseud. aeruginosa UI-18) was 1.6 µg/mL (≈ 4.27 µM) and the MIC (Staph. aureus H 228) was 0.05 µg/mL (≈ 0.134 µM). For the same compound, the MIC (Staph. aureus UC-76) was 0.0013 µg/mL (≈ 0.00347 µM), the MIC (Strep. faecalis MGH-2) was 0.05 µg/mL (≈ 0.134 µM) and the MIC (Strep. pheumoniae SV-1) was 0.013 µg/mL (≈ 0.0347 µM). It also gave an MIC (Strep. pyogenes C-203 [2]) of 0.025 µg/mL (≈ 0.0668 µM), an ED50 (Esch. coli Vogel [3]; PO) of 1 mg/kg and an ED50 (Esch. coli Vogel [3]; SC) of 0.5 mg/kg. The ED50 (Strep. pyogenes C-203 [4]; C203, PO) was 2 mg/kg, the ED50 (Strep. pyogenes C-203 [4]; C203, SC) was 2 mg/kg and the CC50 at 3 h [5] was 130 µg/mL (≈ 347 µM).

Compound `Cc1c(F)c(N2CC[C@@H]([C@H](C)N)C2)cc2c1c(=O)c(C(=O)O)cn2-c1ccc(F)cc1F` [Example 65, 3R,1S-7-[3-(1-aminoethyl)-1-pyrrolidinyl]-1-(2,4-difluorophenyl)-6-fluoro-1,4-dihydro-5-methyl-4-oxo-3-quinolinecarboxylic acid, monohydrochloride] has an MIC (Ent. cloacae MA2646) of 0.1 µg/mL, an MIC (Esch. coli Vogel [1]) of 0.1 µg/mL and an MIC (Klebs. pneumoniae MGH-2) of 0.2 µg/mL. For the same compound, the MIC (Prot. rettgeri M 1771) was 0.4 µg/mL, the MIC (Pseud. aeruginosa UI-18) was 0.8 µg/mL and the MIC (Staph. aureus H 228) was 0.013 µg/mL. For the same compound, the MIC (Staph. aureus UC-76) was 0.006 µg/mL, the MIC (Strep. faecalis MGH-2) was 0.025 µg/mL and the MIC (Strep. pheumoniae SV-1) was 0.003 µg/mL. It also gave an MIC (Strep. pyogenes C-203 [2]) of 0.003 µg/mL, an ED50 (Strep. pyogenes C-203 [4]; C203, PO) of 5 mg/kg and an ED50 (Strep. pyogenes C-203 [4]; C203, SC) of 0.6 mg/kg. For the same compound, the CC50 at 3 h [5] was 10 µg/mL.

For `CN[C@H](C)[C@H]1CCN(c2c(F)cc3c(=O)c(C(=O)O)cn(C4CC4)c3c2OC)C1` [Example 38, 3S,1R-1-cyclopropyl-6-fluoro-7-[3-(1-N-methylaminoethyl)-1-pyrrolidinyl]-8-methoxy-1,4-dihydro-4-oxo-3-quinolinecarboxy acid], the MIC (Ent. cloacae MA2646) was 0.2 µg/mL (≈ 0.496 µM), the MIC (Esch. coli Vogel [1]) was 0.2 µg/mL (≈ 0.496 µM) and the MIC (Klebs. pneumoniae MGH-2) was 0.4 µg/mL (≈ 0.991 µM). For the same compound, the MIC (Prot. rettgeri M 1771) was 0.8 µg/mL (≈ 1.98 µM), the MIC (Pseud. aeruginosa UI-18) was 3.1 µg/mL (≈ 7.68 µM) and the MIC (Staph. aureus H 228) was 0.05 µg/mL (≈ 0.124 µM). For the same compound, the MIC (Staph. aureus UC-76) was 0.013 µg/mL (≈ 0.0322 µM), the MIC (Strep. faecalis MGH-2) was 0.05 µg/mL (≈ 0.124 µM) and the MIC (Strep. pheumoniae SV-1) was 0.025 µg/mL (≈ 0.062 µM). The MIC (Strep. pyogenes C-203 [2]) was 0.025 µg/mL (≈ 0.062 µM), the ED50 (Strep. pyogenes C-203 [4]; C203, PO) was 6 mg/kg and the ED50 (Strep. pyogenes C-203 [4]; C203, SC) was 1 mg/kg. The CC50 at 3 h [5] was 130 µg/mL (≈ 322 µM).

`CN[C@H](C)[C@@H]1CCN(c2nc3c(cc2F)c(=O)c(C(=O)O)cn3C2CC2)C1` [Example 22, 3R,1R-1-cyclopropyl-6-fluoro-7-[3-(1-N-methylaminoethyl)-1-pyrrolidinyl]-1,4-dihydro-4-oxo-1,8-naphthyridine-3-carboxylic acid] showed an MIC (Ent. cloacae MA2646) of 0.1 µg/mL (≈ 0.267 µM), an MIC (Esch. coli Vogel [1]) of 0.1 µg/mL (≈ 0.267 µM) and an MIC (Klebs. pneumoniae MGH-2) of 0.2 µg/mL (≈ 0.534 µM). It also gave an MIC (Prot. rettgeri M 1771) of 0.4 µg/mL (≈ 1.07 µM), an MIC (Pseud. aeruginosa UI-18) of 1.6 µg/mL (≈ 4.27 µM) and an MIC (Staph. aureus H 228) of 0.1 µg/mL (≈ 0.267 µM). For the same compound, the MIC (Staph. aureus UC-76) was 0.05 µg/mL (≈ 0.134 µM), the MIC (Strep. faecalis MGH-2) was 0.025 µg/mL (≈ 0.0668 µM) and the MIC (Strep. pheumoniae SV-1) was 0.05 µg/mL (≈ 0.134 µM). The MIC (Strep. pyogenes C-203 [2]) was 0.05 µg/mL (≈ 0.134 µM), the ED50 (Esch. coli Vogel [3]; PO) was 4.6 mg/kg and the ED50 (Esch. coli Vogel [3]; SC) was 1.2 mg/kg. The ED50 (Strep. pyogenes C-203 [4]; C203, PO) was 8 mg/kg, the ED50 (Strep. pyogenes C-203 [4]; C203, SC) was 5 mg/kg and the CC50 at 3 h [5] was 88 µg/mL (≈ 235 µM).

Compound `CN[C@@H](C)[C@@H]1CCN(c2nc3c(cc2F)c(=O)c(C(=O)O)cn3-c2ccc(F)cc2F)C1` [Example 64, 3R,1S-1-(2,4-difluorophenyl)-6-fluoro-1,4-dihydro-7-[3-[1-(methylamino)ethyl]-1-pyrrolidinyl]-4-oxo-1,8-naphthyridine-3-carboxylic acid, monohydrochloride] has an MIC (Ent. cloacae MA2646) of 0.8 µg/mL, an MIC (Esch. coli Vogel [1]) of 0.4 µg/mL and an MIC (Klebs. pneumoniae MGH-2) of 0.8 µg/mL. The MIC (Prot. rettgeri M 1771) was 1.6 µg/mL, the MIC (Pseud. aeruginosa UI-18) was 3.1 µg/mL and the MIC (Staph. aureus H 228) was 0.1 µg/mL. It also gave an MIC (Staph. aureus UC-76) of 0.025 µg/mL, an MIC (Strep. faecalis MGH-2) of 0.2 µg/mL and an MIC (Strep. pheumoniae SV-1) of 0.025 µg/mL. It also gave an MIC (Strep. pyogenes C-203 [2]) of 0.05 µg/mL, an ED50 (Esch. coli Vogel [3]; PO) of 5 mg/kg and an ED50 (Esch. coli Vogel [3]; SC) of 2 mg/kg. It also gave an ED50 (Strep. pyogenes C-203 [4]; C203, PO) of 4 mg/kg, an ED50 (Strep. pyogenes C-203 [4]; C203, SC) of 2 mg/kg and a CC50 at 3 h [5] of 310 µg/mL.

Reference: patent US5563155A, “Individual stereosiomers of 7-[3-(aminoalkyl)-1-pyrrolidinyl]-quinolones and naphthyridones as antibacterial agents” (Warner-Lambert Company, priority 1995, dated 1996)
